Several values for one entry are separate records, joined by “and”; a condition that tells them apart may be missing. Identical values can stand only once.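 48-hour exposure; five concentrations; linearly interpolated endpoints. Abbreviation: GI50, concentration required for 50% inhibition of growth. TGI marks complete inhibition of growth.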 Where a SMILES comes first, the peptide text is derived from it. [ ]: non-standard residue; d: D form. The star is where a group is joined. ξ: configuration not given here. NMeF = CN[C@@H](Cc1ccccc1)C(=O)O; ξNMeV = CNC(C(=O)O)C(C)C; Boc = CC(C)(C)OC(=O)*; OBn = c1ccc(CO*)cc1
How the values were obtained:
Assay in all cases: inhibition of tumour cell growth, NCI panel, 48 h
[1] = tested on: DLD-1 colon
[2] = tested on: M19-MEL melanoma
[3] = tested on: HCC-2998 colon
[4] = tested on: EKVX NSCLC
[5] = tested on: NCI-H226 lung
[6] = tested on: HL-60(TB) leukemia
[7] = tested on: SN12C renal
[8] = tested on: NCI-H522 lung
[9] = tested on: DMS 114 small cell lung
[10] = tested on: LXFL 529 NSCLC
[11] = tested on: COLO 205 colon
[12] = tested on: MOLT-4 leukemia
[13] = tested on: U251 CNS
[14] = tested on: SF-295 CNS
[15] = tested on: MDA-N
[16] = tested on: MDA-MB-231 breast
[17] = tested on: PC-3 prostate

| SMILES | TGI [1] [µM] | TGI [2] [µM] | TGI [3] [µM] | TGI [4] [µM] | TGI [5] [µM] | TGI [6] | TGI [7] [µM] | TGI [8] | TGI [9] [µM] | TGI [10] [µM] | TGI [11] [µM] | TGI [12] | TGI [13] [µM] | TGI [14] [µM] | TGI [15] [µM] | TGI [16] [µM] | TGI [17] [µM] | GI50 [7] [µM] |
| --- | --- | --- | --- | --- | --- | --- | --- | --- | --- | --- | --- | --- | --- | --- | --- | --- | --- | --- |
| COc1ccc(C2ON(c3ccccn3)CC=C2C)cc1 (configuration not stated) | > 100 | > 100 | > 100 | > 100 | > 100 | > 100 µM | > 100 | > 100 µM | > 100 | > 100 | > 100 | > 100 µM | > 100 | > 100 |  |  |  |  |
| N#CC(C#N)=C(N)/C(C#N)=C/c1cc(O)c(O)c(Br)c1 | > 100 | > 100 | > 100 | > 100 | > 79.1 | > 92.3 µM | > 100 | > 100 µM | 88.5 | > 100 | > 100 | > 100 µM | > 100 | > 100 | > 100 | > 100 | > 100 |  |
| CC12CC[C@H](O)C(C)(C)[C@H]1CC[C@](C)(O)C2COc1ccc2ccc(=O)oc2c1 (some centres not stated) | > 100 | > 100 | > 100 | > 100 | > 100 | > 100 µM | > 100 | > 100 µM | > 100 | > 100 | > 100 | > 100 µM | > 100 | > 100 |  |  |  |  |
| COC(=O)N/N=C/c1oc(-c2ccccc2)c(-c2ccccc2)c1[N+](=O)[O-] | > 100 | > 100 | > 100 |  | > 100 | > 100 µM | > 100 | > 100 µM | > 100 | > 100 | > 100 | > 100 µM | > 100 | > 100 |  |  |  |  |
| CC(=O)OC1CC2(c3ccccc3)C(=O)c3ccccc3N2O1 (configuration not stated) | > 100 | > 100 | > 100 | > 100 | > 100 | > 100 µM | > 100 | > 100 µM | > 100 | > 100 | > 100 | > 100 µM | > 100 | > 100 |  |  |  |  |
| O=C1c2nn(-c3ccccc3)nc2C(c2ccccc2)N1c1ccccc1 (configuration not stated) | > 100 | > 100 | > 100 | > 100 | > 100 |  | > 100 | > 100 µM | > 100 | > 100 | > 100 | > 100 µM | > 100 | > 100 |  |  |  |  |
| c1ccc2sc(C3(N4CCCCC4)CCCCCC3)cc2c1 |  |  | 27.9 | 47.2 | 33.7 | 11.4 µM | 41.4 | 32.8 µM |  |  | 31.8 | 29.6 µM | 31 | 49.1 | > 100 | 42.1 | 29.3 |  |
| CC(C)C(C(=O)N1CCC[C@@H]1C(=O)OCc1ccccc1)N(C)C(=O)C(C(C)C)N(C)C(=O)[C@H](Cc1ccccc1)N(C)C(=O)[C@H](NC(=O)OC(C)(C)C)C(C)C (some centres not stated) (Boc-[dV][NMeF][ξNMeV][ξNMeV][dP]-OBn) | > 100 | > 100 | > 100 | > 100 | > 100 | > 100 µM | > 100 | > 100 µM | > 100 | > 100 | > 100 | > 100 µM | > 100 | > 100 |  |  |  |  |
| CC1C/C(=N\N(C)C)C(C#N)(C#N)C1(C#N)C#N (configuration not stated) |  |  | 31.5 | 56.1 | > 65.9 | > 100 µM | 34.4 | 4.13 µM |  |  | 5.67 | 6.9 µM | 40.1 | 43.2 | 33 | 1.32 | 47.2 |  |
| CN(C)c1ccc(/C=C(\NC(=O)c2ccccc2)C(=O)Nc2ccccc2C(=O)O)cc1 |  |  | > 100 | > 100 | > 100 | > 100 µM | > 100 | > 100 µM |  |  | > 100 | > 100 µM | > 100 | > 100 | > 100 | > 100 | > 100 |  |
| CC1OC(OC2C(O)COC(OC3C(C)OC(OC4C(OC(=O)[C@]56CCC(C)(C)C[C@@H]5C5=CCC7[C@@]8(C)C[C@H](O)[C@H](OC9OC(CO)C(O)C(OC%10OC(CO)C(O)C(O)C%10O)C9O)[C@@](C)(CO)[C@@H]8CC[C@@]7(C)[C@]5(C)CC6)OCC(O)C4O)C(O)C3OC3OCC(O)C(O)C3O)C2O)C(O)C(O)C1O (some centres not stated) |  |  | 4.44 | 15.6 | 25.1 | 15 µM | 3.87 | 26.4 µM |  |  | 3.82 | 36.1 µM | 20.1 | 9.81 | 7.24 | 8.87 | 16.1 |  |
| O=C1C2CCC(C2)C12CC1(c3ccccc3)C(=O)c3ccccc3N1O2 (configuration not stated) | > 100 | > 100 | > 100 | > 100 | > 100 | > 100 µM | > 100 | > 100 µM | > 100 | > 100 | > 100 | > 100 µM | > 100 | > 100 |  |  |  |  |
| C[C@@H](NC(=O)OC1C=CC2(CC1)C(=O)N(C)c1ccccc12)c1cccc2ccccc12 (some centres not stated) |  |  | > 25 | > 25 | > 25 | 14.7 µM | > 25 | > 25 µM |  |  | > 25 | > 25 µM | > 25 | > 25 | > 25 | > 25 | > 25 |  |
| N=C(N)n1[nH]c2c(c1=O)CCCC2 |  |  | > 100 | > 100 | > 100 | > 100 µM | > 100 | > 100 µM |  |  | > 100 | > 100 µM | > 100 | > 100 | > 100 | > 100 | > 100 |  |
| CN(C)CCCNc1nnc(NCCCN(C)C)c2c(=O)c3sccc3[nH]c12 |  |  | 23.7 | 65.6 | 39.1 | > 28.2 µM | 50.9 | 17.3 µM |  |  | > 20.2 | 14.4 µM | > 100 | > 54 | 14.9 | > 30.7 | > 61.4 |  |
| COc1cc(C(C)c2cc3c(cc2OCCCCOc2cc4c(cc2C(C)c2cc(OC)c(OC)c(OC)c2)OCO4)OCO3)cc(OC)c1OC (configuration not stated) | > 100 | > 100 | > 100 | > 100 | 80.6 | > 100 µM | > 100 |  | 45.1 | > 100 | > 100 | > 100 µM | > 100 | 91.3 |  |  |  |  |
| CC(=O)Nc1cc2c(cc1O)CC[C@@H]1[C@@H]2CC[C@]2(C)[C@@H](O)CC[C@@H]12 |  |  | 82.4 | > 100 | > 100 | > 100 µM | > 100 | 81.5 µM |  |  | 62.2 | > 100 µM | > 100 | > 100 | 52.1 | > 100 | > 100 | 48.5 |
| Cc1ccc2c(c1)[nH]c(=S)n2C=C1C(=O)CC(C)(C)CC1=O |  |  | > 100 | > 100 | > 100 | > 100 µM | > 100 | > 100 µM |  |  | > 100 | > 100 µM | > 100 | > 100 | > 100 | > 100 | > 100 |  |
| CC(C)(C)OC(=O)NC(Cc1cnc[nH]1)C(=O)N1CCCC1C(N)=O (configuration not stated) |  |  | > 100 | > 100 | > 100 | > 100 µM | > 100 | > 100 µM |  |  | > 100 | > 100 µM | > 100 | > 100 | > 100 | > 100 | > 100 |  |
| COc1ccc([N-]/C(=N\n2c(=O)c(C)nn(C)c2=S)N(c2ccc(OC)cc2)c2nn3c(=O)c(C)n[n+](C)c3s2)cc1 | > 100 | > 100 |  | > 100 | > 100 | > 100 µM | > 100 | > 100 µM | > 100 | > 100 | > 100 | > 100 µM | > 100 | > 100 |  |  |  |  |
| CCCC(=O)OC[n+]1cccc(-c2c(COC(=O)NC(C)C)c(COC(=O)NC(C)C)c3n2CCC3)c1 |  |  | > 100 | > 100 | > 100 | > 67.3 µM | > 100 | 71.8 µM |  |  | > 100 | > 83.3 µM | > 100 | > 100 | > 100 | > 100 | > 100 |  |
| CC(C)OP(=O)(OC(C)C)/C(=N/N)NNc1ccc([N+](=O)[O-])cc1 | > 100 | > 100 | > 100 | > 100 | > 100 | > 100 µM | > 100 | > 100 µM | > 100 | > 100 | > 100 | > 100 µM | > 100 |  |  |  |  |  |
| O=c1c2ccccc2nc(-c2ccccc2)n1NC(=S)Nc1ccc(Cl)cc1[N+](=O)[O-] | > 100 | > 100 |  |  | 82.4 | > 100 µM | > 100 | > 100 µM | > 100 | > 100 | > 100 | > 100 µM | > 100 | > 100 |  |  |  |  |
| Cc1nc2ccccc2c(=O)n1NC(=O)c1ccccc1O |  |  | > 100 | > 100 | > 100 | > 100 µM | > 100 | > 100 µM |  |  | > 100 | > 100 µM | > 100 | > 100 | > 100 | > 100 | > 100 |  |
| Cn1cc(C[C@@H](N)C(=O)O)c2ccccc21 |  |  | > 100 | > 100 | > 100 | > 100 µM | > 100 | > 100 µM |  |  | > 100 | > 100 µM | > 100 | > 100 | > 100 | > 100 | > 100 |  |
| COc1ccc(-n2c(C)nc3ccc(NC4OCC(O)C(O)C4O)cc3c2=O)cc1 (configuration not stated) |  |  | > 100 | > 100 | > 100 | 62.4 µM and 68.2 µM | > 100 | 72 µM and 55 µM |  |  | > 100 | 84.7 µM and > 100 µM | > 100 | > 100 | > 100 | > 100 | > 100 |  |
